Laboratory results published in article PMC8161735 (Toxicology, 2021).
pIC50: −log10 of the molar value.

Target: human ether-a-go-go-related gene (hERG) potassium channel (Homo sapiens, UniProt Q12809)
Assay: whole-cell patch clamp, hERG tail current in hERG-HEK-293 cells
Assay type: cell-based

human ether-a-go-go-related gene (hERG) potassium channel, sequence (Q12809 whole entry): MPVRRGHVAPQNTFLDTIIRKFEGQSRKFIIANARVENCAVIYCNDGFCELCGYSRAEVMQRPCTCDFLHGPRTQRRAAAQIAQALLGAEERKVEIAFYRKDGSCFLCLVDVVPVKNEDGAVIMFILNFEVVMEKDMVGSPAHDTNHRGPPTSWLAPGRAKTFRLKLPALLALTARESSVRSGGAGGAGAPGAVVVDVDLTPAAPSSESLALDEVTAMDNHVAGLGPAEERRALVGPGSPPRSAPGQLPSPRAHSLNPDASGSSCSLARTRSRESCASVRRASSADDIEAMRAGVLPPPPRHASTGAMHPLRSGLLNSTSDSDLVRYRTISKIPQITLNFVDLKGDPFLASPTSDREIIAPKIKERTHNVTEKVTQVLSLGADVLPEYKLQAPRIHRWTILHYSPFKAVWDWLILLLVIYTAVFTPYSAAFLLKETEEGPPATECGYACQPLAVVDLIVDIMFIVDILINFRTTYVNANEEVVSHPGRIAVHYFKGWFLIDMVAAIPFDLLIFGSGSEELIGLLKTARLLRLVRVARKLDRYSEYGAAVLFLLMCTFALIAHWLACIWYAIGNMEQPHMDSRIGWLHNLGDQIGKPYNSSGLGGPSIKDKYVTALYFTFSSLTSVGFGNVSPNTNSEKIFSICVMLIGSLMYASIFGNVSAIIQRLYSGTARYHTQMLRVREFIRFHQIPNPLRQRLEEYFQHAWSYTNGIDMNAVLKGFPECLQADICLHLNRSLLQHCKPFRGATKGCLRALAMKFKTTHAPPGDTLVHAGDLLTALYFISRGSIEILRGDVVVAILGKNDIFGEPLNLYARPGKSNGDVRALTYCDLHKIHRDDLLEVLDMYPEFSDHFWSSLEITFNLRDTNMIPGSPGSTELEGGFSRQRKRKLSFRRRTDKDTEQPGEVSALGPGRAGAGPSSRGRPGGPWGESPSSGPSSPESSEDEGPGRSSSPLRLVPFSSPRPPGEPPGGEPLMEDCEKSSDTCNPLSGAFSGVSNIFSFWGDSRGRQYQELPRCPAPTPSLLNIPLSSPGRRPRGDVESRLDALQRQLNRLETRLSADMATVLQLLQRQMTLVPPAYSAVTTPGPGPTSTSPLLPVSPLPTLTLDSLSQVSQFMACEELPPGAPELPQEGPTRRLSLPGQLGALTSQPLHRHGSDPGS

`CCN(CCO)CCCC(C)Nc1ccnc2cc(Cl)ccc12` (stereo not shown) [HCQ, Hydroxychloroquine] was tested, and the pIC50 was 5.07.
